Measurements taken from PMC10607708 (Journal of natural products, 2021).
Like-named read-outs stand apart in the source and are kept apart here.

How the values were obtained:
[1] = Saliva levels after intraperitoneal administration of ATB; format: in vivo, C57BL/6 mice; conditions: for detection in mouse saliva: i.p. 500 mg/kg ATB q.d., 7 consecutive days
[2] = format: in vivo, C57BL/6 mice; conditions: for bioavailability: C57BL/6, mouse, whole blood, ip, 500 mg/kg; for AUC0-t /Dose / Cmax/Dose: blood
PGE2 = PGE2 assay in LPS-stimulated SCC-9 cells; format: cell-based; conditions: LC-MS/MS
Stability in saliva = format: in vitro ADME
Cal-27 = assay: MTT anti-proliferation assay in Cal-27 cells; format: cell-based; conditions: in words
[3] = test system: salivary gland adenoid cystic carcinoma cells (ACC-M); conditions: in vitro; cited from earlier work
[4] = Pharmacokinetics after oral administration of ATB or pure KACs, blood; format: in vivo, C57BL/6 mice; conditions: for AUC0-t /Dose / Cmax/Dose: blood
[5] = Pharmacokinetics after i.v. administration of ATB, blood; format: in vivo, C57BL/6 mice; conditions: 500 mg/kg ATB IV, matrine dosage 2.79 mg/kg
[6] = saliva, 500 mg/kg ATB IP Day 7, matrine dosage 2.79 mg/kg
[7] = 500 mg/kg ATB IP Day 1, matrine dosage 2.79 mg/kg
[8] = 500 mg/kg ATB IP Day 7, matrine dosage 2.79 mg/kg
[9] = 5 mg/kg KAC Oral (pure compound), matrine dosage 5.00 mg/kg
[10] = 100 mg/kg ATB Oral, matrine dosage 0.56 mg/kg
[11] = 500 mg/kg ATB Oral, matrine dosage 2.79 mg/kg
[12] = 4000 mg/kg ATB Oral, matrine dosage 22.32 mg/kg

Structure (SMILES): CC1=C2C(=O)O[C@@H](c3ccoc3)[C@]2(C)CCC1 [Fraxinellone, fraxinellone]
- detection in mouse saliva [1]: no Frax or Maac detected
- bioavailability [2]: 2.8 ± 2.1%
- inhibition of PGE2 production (PGE2; 25 μM): significant inhibition

Structure (SMILES): Oc1ccc2c(c1)OCC1c3cc4c(cc3OC21)OCO4 (stereo not shown) [Maackiain, maackiain]
- detection in mouse saliva [1]: no Frax or Maac detected
- bioavailability [2]: 4.8 ± 4.2%

Structure (SMILES): O=C1CCC[C@@H]2[C@H]3CCCN4CCC[C@@H](CN12)[C@@H]34 [Matrine, matrine]
- stability in saliva (Stability in saliva; room temperature): 4 h
- stability in saliva (Stability in saliva; −20 °C): 170 h
- inhibition effect against Cal-27 cells (Cal-27): moderate inhibition effect
- AUC(0-t) ([1]; C57BL/6, mouse, saliva, ip, 500 mg/kg): 2680 ± 1660 ng·h/mL
- detection in mouse saliva [1]: detected
- AUC0-t /Dose [1, 6]: 952.8 ± 594.4 (hr*ng/mL)/(mg/kg)
- Cmax/Dose [1, 6]: 1533.9 ± 823.5 (ng/mL)/(mg/kg)
- bioavailability [2]: 28.9 ± 11%
- AUC0-t /Dose [2, 7]: 528.7 ± 200.9 (hr*ng/mL)/(mg/kg)
- Cmax/Dose [2, 7]: 292.4 ± 147.8 (ng/mL)/(mg/kg)
- AUC0-t /Dose [2, 8]: 592.0 ± 434.7 (hr*ng/mL)/(mg/kg)
- Cmax/Dose [2, 8]: 197.8 ± 144.1 (ng/mL)/(mg/kg)
- accumulation in the body after multiple-dose administration ([2]; in words, Fig 5): no accumulation
- effect on adhesion and invasion properties of ACC-M cells [3]: inhibit
- inhibition of PGE2 production (PGE2; 50 μM): significant inhibition
- AUC0-t /Dose [4, 9]: 46.9 ± 13.0 (hr*ng/mL)/(mg/kg)
- Cmax/Dose [4, 9]: 22.0 ± 7.4 (ng/mL)/(mg/kg)
- AUC0-t /Dose [4, 10]: 58.5 ± 32.7 (hr*ng/mL)/(mg/kg)
- Cmax/Dose [4, 10]: 25.9 ± 20.5 (ng/mL)/(mg/kg)
- AUC0-t /Dose [4, 11]: 43.1 ± 21.3 (hr*ng/mL)/(mg/kg)
- Cmax/Dose [4, 11]: 19.3 ± 10.2 (ng/mL)/(mg/kg)
- AUC0-t /Dose [4, 12]: 164.1 ± 60.0 (hr*ng/mL)/(mg/kg)
- Cmax/Dose [4, 12]: 31.8 ± 10.6 (ng/mL)/(mg/kg)
- increase of dose-normalized AUC ([4]; oral ATB, from 500 mg/kg to 4000 mg/kg): ~ 400%
- AUC0-t /Dose [5]: 1830.0 ± 1241.2 (hr*ng/mL)/(mg/kg)
- Cmax/Dose [5]: 1408.3 ± 835.8 (ng/mL)/(mg/kg)
